Each structure is given as a SMILES string. Results filed as inconclusive are left out.

Drawing on PubChem BioAssay AID1596 (NINDS Approved Drug Screening Program, 2009), this text covers EC50 for 66 molecules.

The experiment concerns PC12 polyQ huntingtin toxicity, LDH release. Description: mutant huntingtin toxicity rescue agents – PC12 cells, LDH release, LDH100, dose response (AID 1596).

Turning to `Nc1c2c(nc3ccccc13)CCCC2`, the 50% effective concentration (EC50) (in general, the midpoint of the concentration-response curve) was 60 µM.

Take `C[C@@H]1C[C@@H]([C@H](O)CC2CC(=O)NC(=O)C2)C(=O)[C@@H](C)C1`: the concentration for a half-maximal effect (EC50) was 0.2 µM.

For `O=C(Nc1ccc([N+](=O)[O-])cc1Cl)c1cc(Cl)ccc1O`, the EC50 is 1 µM.

As for `CC[C@H]1OC(=O)[C@H](C)[C@@H](O[C@H]2C[C@@](C)(OC)[C@@H](O)[C@H](C)O2)[C@H](C)[C@@H](O[C@@H]2O[C@H](C)C[C@H](N(C)C)[C@H]2O)[C@](C)(O)C[C@@H](C)CN(C)[C@H](C)[C@@H](O)[C@]1(C)O`, the EC50 was 100 µM.

`CC(NC(=O)C(NC(=O)OCc1ccccc1)C(C)C)C(=O)NC(CC(=O)O)C(=O)OC(F)F` (stereo unspecified): the EC50 is 20 µM.

Turning to `CC(=O)c1c(O)c(C)c(O)c2c1OC1=CC(=O)C(C(C)=O)C(=O)C12C` (stereo unspecified), the half-maximal effective concentration (EC50) was 60 µM.

Turning to `OCCN1CCN(CCCN2c3ccccc3Sc3ccc(Cl)cc32)CC1`, the EC50 is 100 µM.

With `OCC(S)CS` (stereo unspecified), the 50% effective concentration (EC50) is 10 µM.

Regarding `CNC(=O)Oc1ccc2c(c1)[C@]1(C)CCN(C)[C@@H]1N2C`, the EC50 was 100 µM.

In the case of `O=c1[nH]c2ccccc2n1C1CCN(CCCC(c2ccc(F)cc2)c2ccc(F)cc2)CC1`, the EC50 was 30 µM.

In the case of `CN1CCc2c(c3ccccc3n2Cc2ccccc2)C1`, the 50% effective concentration (EC50) is 30 µM.

For `CC(C)CC1C(=O)N2CCC[C@H]2C2(O)O[C@](NC(=O)C3C=C4c5cccc6[nH]c(Br)c(c56)C[C@H]4N(C)C3)(C(C)C)C(=O)N12` (stereo partly specified), the 50% effective concentration (EC50) was 30 µM.

`CO[C@@]12[C@@H]3NC3CN1C1=C(C(=O)C(N)=C(C)C1=O)[C@@H]2COC(N)=O` (stereo partly specified): the EC50 was 2.5 µM.

Regarding `O=C(c1ccccc1)c1ccc2n1CCC2C(=O)O` (stereo unspecified), the EC50 is 8 µM.

Regarding `C[C@H]1c2cccc(O)c2C(O)=C2C(=O)[C@]3(O)C(O)=C(C(N)=O)C(=O)[C@@H](N(C)C)[C@@H]3[C@@H](O)[C@@H]21`, the EC50 is 60 µM.

Take `CCCCCCCCCCCCCCCCCC(=O)OC(CC(=O)O)C[N+](C)(C)C` (stereo unspecified): the EC50 was 100 µM.

Regarding `Cc1cc(C2CCCCC2)n(O)c(=O)c1`, the EC50 is 2.5 µM.

For the molecule `NCCCCNCCCN`, the concentration for a half-maximal effect (EC50) was 8 µM.

As to `CO[C@@H]1C[C@@H](C[C@H]2CC[C@H](C)[C@H]([C@@H](C)C(=O)O)O2)O[C@]2(O[C@](C)([C@H]3CC[C@@](C)(C4O[C@@H](C5O[C@@](O)(CO)[C@H](C)C[C@@H]5C)C[C@@H]4C)O3)C[C@H]2C)[C@@H]1C` (stereo partly specified), the EC50 is 4 µM.

As for `Nc1c(Br)cc(Br)cc1CNC1CCC(O)CC1` (stereo unspecified), the half-maximal effective concentration (EC50) is 100 µM.

Regarding `O=C(O)c1cc2cc(Cc3cccnc3)ccc2o1`, the EC50 was 20 µM.

`CC(Cc1ccc(O)c(O)c1)C(C)Cc1ccc(O)c(O)c1` (stereo unspecified): the EC50 is 8 µM.

Turning to `CC(=O)Nc1ccc(S(=O)(=O)Nc2ccc([N+](=O)[O-])cc2)cc1`, the concentration for a half-maximal effect (EC50) was 20 µM.

Consider `NC(=NCc1ccccc1)NC(=O)c1nc(Cl)c(N)nc1N`, for which the EC50 was 100 µM.

For the molecule `CN(C)c1ccc(C(=C2C=CC(=[N+](C)C)C=C2)c2ccc(N(C)C)cc2)cc1`, the concentration giving a half-maximal response (EC50) was 0.2 µM.

With `CC(=O)Oc1ccc(Cl)c2cccnc12`, the EC50 was 8 µM.

For the molecule `COc1cc2ccc(=O)oc2cc1O`, the concentration for a half-maximal effect (EC50) is 30 µM.

With `O=NN(CCCl)C(=O)NCCCl`, the concentration for a half-maximal effect (EC50) was 4 µM.

In the case of `Cc1ccc(C(=O)C(C)CN2CCCCC2)cc1` (stereo unspecified), the concentration giving a half-maximal response (EC50) was 6 µM.

Consider `COC12CC[C@@]3(C[C@@H]1C(C)(O)C(C)(C)C)[C@H]1Cc4ccc(O)c5c4[C@@]3(CCN1CC1CC1)[C@H]2O5` (stereo partly specified), for which the EC50 is 100 µM.

Take `CCOc1ccc2c(c1)C(C)=CC(C)(C)N2`: the EC50 was 8 µM.

With `Oc1c(Cl)cc(Cl)c(Cl)c1Cc1c(O)c(Cl)cc(Cl)c1Cl`, the EC50 is 10 µM.

For the molecule `CC[n+]1c(-c2ccccc2)c2cc(N)ccc2c2ccc(N)cc21`, the EC50 is 4 µM.

For the molecule `CCN(CC)CCNc1ccc(CO)c2sc3ccccc3c(=O)c12`, the EC50 was 4 µM.

For `O=C1C=CC(=C(c2ccc(O)cc2)c2ccc(O)cc2)C=C1`, the half-maximal effective concentration (EC50) was 6 µM.

For `C[C@@]1(C(=O)O)CC[C@]2(C)CC[C@]3(C)C4=CC=C5C=C(O)C(=O)C=C5[C@]4(C)CC[C@@]3(C)[C@@H]2C1`, the EC50 was 0.5 µM.

As for `CCCCC(=O)OC1(C(=O)CO)C(C)CC2C3CCC4=CC(=O)C=CC4(C)[C@@]3(F)[C@@H](O)CC21C` (stereo partly specified), the EC50 was 60 µM.

For `CO/N=C(/C(=O)N[C@@H]1C(=O)N2C(C(=O)O)=C(COC(C)=O)CS[C@H]12)c1csc(N)n1`, the EC50 is 6 µM.

With `NC(=O)N/N=C/c1ccc([N+](=O)[O-])o1`, the EC50 was 20 µM.

For `CN[C@@H]1[C@H](OC2[C@H](O[C@H]3[C@H](O)[C@@H](O)[C@H](N=C(N)N)[C@@H](O)[C@@H]3N=C(N)N)O[C@@H](C)[C@]2(O)C=O)O[C@@H](CO)[C@H](O)[C@H]1O` (stereo partly specified), the concentration giving a half-maximal response (EC50) was 100 µM.

As to `CCCCCc1cc(O)c2c(c1)OC(C)(C)c1ccc(C)cc1-2`, the EC50 was 40 µM.

`CC(NCCC(c1ccccc1)c1ccccc1)c1ccccc1` (stereo unspecified): the EC50 was 10 µM.

Consider `CC(C)=CCC1=C(O)c2ccccc2C(=O)C1=O`, for which the concentration giving a half-maximal response (EC50) was 100 µM.

As for `CN(C)[C@@H]1C(=O)C(C(N)=O)=C(O)[C@@]2(O)C(=O)C3=C(O)c4c(O)cccc4[C@@](C)(O)[C@H]3[C@H](O)[C@@H]12`, the EC50 is 100 µM.

For `Oc1c(Cl)cc(Cl)cc1Sc1cc(Cl)cc(Cl)c1O`, the concentration giving a half-maximal response (EC50) was 20 µM.

In the case of `CC(C)=CCCC1(C)C=Cc2c(O)c3c(c(CC=C(C)C)c2O1)OC12C(=CC4CC1C(C)(C)OC2(C/C=C(/C)C(=O)O)C4=O)C3=O` (stereo unspecified), the EC50 is 0.3 µM.

In the case of `CCCCCc1cc(O)c2c(c1)OC(C)(C)C1CC=C(C)CC21` (stereo unspecified), the concentration for a half-maximal effect (EC50) is 40 µM.

Regarding `CC(C)(C)c1ccc(C(O)CCCN2CCC(C(O)(c3ccccc3)c3ccccc3)CC2)cc1` (stereo unspecified), the EC50 is 8 µM.

In the case of `CN1CCc2cccc3c2C1Cc1ccc(O)c(O)c1-3` (stereo unspecified), the concentration giving a half-maximal response (EC50) was 10 µM.

In the case of `CC[C@@]1(O)C[C@H](OC2CC(N(C)C)C(OC3CC(O)C(OC4CCC(=O)C(C)O4)C(C)O3)C(C)O2)c2c(cc3c(c2O)C(=O)c2c(O)cccc2C3=O)[C@H]1C(=O)OC` (stereo partly specified), the 50% effective concentration (EC50) is 4 µM.

Regarding `O=c1cc(-c2ccc(O)cc2)oc2cc(O)cc(O)c12`, the concentration giving a half-maximal response (EC50) was 40 µM.

`C[N+](C)(C)CCOC(N)=O`: the concentration for a half-maximal effect (EC50) was 1 µM.

For `O=c1c2ccccc2[se]n1-c1ccccc1`, the 50% effective concentration (EC50) was 6 µM.

With `C=C[C@H]1CN2CC[C@H]1C[C@@H]2[C@H](O)c1ccnc2ccccc12`, the EC50 is 60 µM.

Regarding `O=C1C=C2C(=CCOC2O)O1` (stereo unspecified), the EC50 was 1 µM.

For the molecule `CC(=O)OCC(=O)[C@@]1(O)[C@H](C)CC2C3CCC4=CC(=O)C=C[C@]4(C)[C@@]3(F)[C@@H](O)C[C@@]21C` (stereo partly specified), the EC50 was 0.8 µM.

As for `CCCCC[C@H](CC(=O)NO)C(=O)N[C@H](C(=O)N1CCC[C@H]1CO)C(C)C`, the EC50 is 100 µM.

With `C=C1C(=O)OC2C1CCC1(C)CCC=C(C)C21` (stereo unspecified), the EC50 is 4 µM.

Consider `CCCCCc1cc(O)c2c(c1)OC(C)(C)C1CCC(C)=CC21` (stereo unspecified), for which the EC50 was 60 µM.

As for `COc1ccc(-c2coc3cc(O)cc(O)c3c2=O)cc1`, the EC50 is 60 µM.

With `COc1ccc(C[C@H](N)C(=O)N[C@@H]2[C@@H](CO)OC(n3cnc4c(N(C)C)ncnc43)[C@@H]2O)cc1` (stereo partly specified), the EC50 is 10 µM.

For the molecule `CC(C)C(=O)Nc1ccc([N+](=O)[O-])c(C(F)(F)F)c1`, the 50% effective concentration (EC50) is 4 µM.

On to `Oc1cccc2cccnc12`, for which the EC50 is 20 µM.

As to `CC1(C)O[C@@H]2CC3C4C[C@H](F)C5=CC(=O)C=CC5(C)C4C(O)CC3(C)[C@]2(C(=O)CO)O1` (stereo partly specified), the EC50 is 100 µM.

With `CN(C)CCOC(c1ccc(Cl)cc1)c1ccccn1` (stereo unspecified), the EC50 was 1.5 µM.

Take `CNc1ccc2oc(C[C@@H]3OC4(CC[C@@H]3C)O[C@H](C(C)C(=O)c3ccc[nH]3)[C@H](C)C[C@H]4C)nc2c1C(=O)O` (stereo partly specified): the EC50 is 0.8 µM.
